Measured values as given in US9492450B2, “Inhibition of dynamin related protein 1 to promote cell death” (University of Pittsburgh—of the Commonwealth System of …, priority 2011, dated 2016).

Assays:
Assay type in all cases: cell-based, human
[1] = test system: primary epithelial ovarian cancer (EOC) cells; assay: Ex vivo drug sensitivity assay on primary cells from ovarian cancer patient ascites; settings: MTS 72 h
Protocol: FIG. 20A-C. The combination of cisplatin and mdivi-1 efficiently overcomes acquired cisplatin resistance in human ovarian cancer cells, including those from endstage cisplatin- and treatment-refractory patient. (A) The comparison of cisplatin sensitivity in ovarian cancer cells A2780 and their derivative cisplatin-resistant A2780cis cells (left panel). A2780cis cells were treated with cisplatin alone or in combination with mdivi-1 for 72 h (right panel). The survival was determined by MTS assay. (B and C) Ex vivo drug sensitivity assay using primary EOC cells isolated from ascites fluid of ovarian cancer patients (B, treatment-naïve; C, cisplatin-resistant). Apoptosis was measured by caspase-3/7 activity assay after 20 h exposure and the survival was measured by MTS assay after 72 h exposure. […]
Cell proliferation was determined using a CyQUANT Direct Cell Proliferation Assay kit (Invitrogen), the activity of caspase-3/7 was measured using a Caspase-Glo 3/7 Assay Systems (Promega, Madison, Wis.), and the MTS colorimetric survival assay was performed using the CellTiter 96 AQueous One Solution Cell Proliferation Assay kit (Promega, Madison, Wis.), according to the manufacturer's instructions. The survival fractions were calculated after setting untreated control cells at 100%. […] The cytotoxic interactions between the two drugs was determined using the method of Chou and Talalay. […]

H1299 cells = assay: Mitochondrial function: ATP, OCR, ECAR, TMRM membrane potential; settings: 50 μM, 4 h
Protocol: FIG. 25A-I. Mdivi-1 causes mitochondrial dysfunction and its combination with cisplatin induces mitochondrial swelling that triggers Bax/Bak-independent MOMP. (A) MDA-MB-231 cells and H1299 cells were treated as indicated for 4 h and subjected to ATP determination. […] (B, C) OCR and ECAR were measured after 4 h treatment of H1299 cells with agents alone or the combination (C/M). (D) H1299 cells were treated as indicated for 4 h. Mitochondrial membrane potential was determined with TMRM. (E) Bax/Bak double knockout MEF cells were treated with DMSO or the combination, with or without the presence of 10 μM FCCP for 2 h. Mitochondrial membrane potential was measured as in D. (F) Bax/Bak double knockout MEF cells were treated as indicated for 2 h, ROS generation was determined with DCF-DA. (G) Bax/Bak double knockout MEF cells were pre-incubated with 5 μM MitoSox for 30 min, and then treated as indicated for 2 h followed by flow cytometry. […] Mitochondrial morphology was analyzed by confocal microscopy. […] Mitochondrial ultrastructure was analyzed by electron microscopy. […]
Total cellular ATP content was determined using a luminescent ATP detection kit, ATPlite (PerkinElmer Life Sciences, Boston, Mass.), according to the manufacturer's instruction. The luminescence intensity was measured using a microplate reader, Synergy 2 (BioTek instruments, Winooski, Vt.). […]

MDA-MB-231 cells = assay: CyQUANT growth assay, continuous exposure; settings: various concentrations
Protocol: To test the effect of Drp1 inhibition on tumor cells, MDA-MB-231 cells were plated in black 96-well plates and treated with various concentrations of mdivi-1. Cell numbers were measured by CyQUANT assay every day.

N.N.[Cl][Pt][Cl] [cisplatin]
IC50 ([1]; EOC cells of a patient not treated with cisplatin (treatment-naïve)): ~7.97 µM | IC50 ([1]; EOC cells of a patient with clinically-defined cisplatin resistance): ~11.6 µM

COc1cc(-n2c(=S)[nH]c3ccccc3c2=O)c(Cl)cc1Cl [mdivi-1]
extracellular acidification rate (ECAR) (H1299 cells): enhanced the extracellular acidification rate | oxygen consumption rate (OCR) / mitochondrial respiration (H1299 cells): suppressed mitochondrial respiration | growth of cells (MDA-MB-231 cells): inhibited the growth of MDA-MB-231 breast cancer cells in a dose-dependent manner
